# Experimental data from patent US20240197666A1, “DITERPENOID COMPOUNDS THAT ACT ON PROTEIN KINASE C (PKC)” (K-Gen Therapeutics, Inc., priority 2021, published 2024).
# Like-named read-outs stand apart in the source and are kept apart here.
# Tests used:
# C1b domain of human PKCδ = target: T1, C1b domain of human PKCδ (Homo sapiens, UniProt Q05655); assay: biochemical; format: binding; settings: 3H-PDBu competition
# T1 construct: Genes encoding C1b domains of human PKCα, δ, ε, θ, and PKD1 (PKCμ) were synthesized; made in house; host or cells: E. coli BL21(DE3)
# Method: (§1) Compounds described in this disclosure were tested for binding affinity to C1b domain of PKC isoforms. Compound binding affinity to C1b domain of PKC isoforms was derived from competitive binding assay using radioactive tracer ^3H-PDBu and recombinant GST-C1b or full-length of human PKC proteins based on modified procedures from Methods in Molecular Biology, vol.
# (§2) Genes encoding C1b domains of human PKCα, δ, ε, θ, and PKD1 (PKCμ) were synthesized and inserted into pGEX-2TK or pGEX-4T1 vectors for expression and production of GST-C1b proteins in E. coli BL21(DE3) via IPTG induction. The target proteins were purified by glutathione sepharose 4B and followed by ion exchange chromatography if needed to achieve purity >70%. Aliquots of the purified proteins were stored at −80 degree for binding assay (storage buffer: 20 mM Tris pH 8.0, 200 mM NaCl, 10% glycerol, 1 mM DTT).
# (§3) The plate was incubated at 37° C. on a shaker at 300 rpm for 10 minutes and then put on ice for 20 minutes. […] The bottom of the filter plate was sealed and 50 μL of MicroScint-20 (PerkinElmer) cocktail was added to each well. ^3H-PDBu trapped in each well was counted using PerkinElmer MicroBeta2 Reader. Data were analyzed using GraphPad Prism5 with the model “log(inhibitor) vs. response-variable slope” to fit the IC50, and then IC50 was transformed to Ki using Cheng-Prusoff equation: Ki=IC50/(1+added radio ligand/Kd). Kd is the binding affinity of each protein preparation to ^3H-PDBu, determined experimentally.
# C1b domain of human PKCθ = target: T2, C1b domain of human PKCθ (Homo sapiens, UniProt Q04759); assay: biochemical; format: binding; settings: 3H-PDBu competition
# T2 construct: Genes encoding C1b domains of human PKCα, δ, ε, θ, and PKD1 (PKCμ) were synthesized; made in house; host or cells: E. coli BL21(DE3)
# T2 sequence (Q04759 231-281 limits assumed): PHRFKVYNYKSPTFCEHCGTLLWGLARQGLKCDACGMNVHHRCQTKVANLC
# Method: as §1, §2, §3
# A549 cell line = assay: Proliferation of A549 (CellTiter Glo); format: cell-based; settings: read-out: IC50 μM (A549 Cell Line)
# Method: (§4) The diterpenoid compounds were tested in A549, a non-small cell lung cancer cell line harboring a K-Ras activating mutation. Briefly, A549 cells at a density of 1,000 cells/well were seeded in 96-well plates and incubated at 37° C. for 24 hours. A series of different concentrations of compound stocks (500×) were prepared by 3-fold serial dilution in DMSO. These compounds were further diluted in culture media and then added to cells so that the final DMSO concentration was not exceeding 0.25%. After 96 hours of incubation, 50 μL of CellTiter Glo reagent (Promega) was added to each well and luminescence was measured after 10 minutes using EnVision (PerkinElmer). Luminescence from cells treated with DMSO alone was set as Max and % of inhibition was calculated as follows: Inhibition %=(Max-Sample value)/Max×100. Data was analyzed using XL-fit software (ID Business Solutions Ltd.) and IC50, relative IC50, and % of top inhibition was calculated. Some of the compounds in this disclosure were very potent in blocking proliferation of A549 lung cancer cells at low nM range. In addition, potency of inhibiting A549 proliferation correlated well with its binding affinity to PKCs for this series of compounds. In other words, higher affinity binders had stronger inhibitory effects on A549 proliferation. This further support the notion that activation, rather than inhibition, of certain PKC isoforms is required to block proliferation of cancer cells, some of which may harbor K-Ras mutations. This is in sharp contrast to previous literature and common belief that inhibition of PKC is necessary to block cancer cell growth (Kang, 2014, New Journal of Science, 2014:1-36). Data presented here is in agreement with recent findings that many loss-of-function but not gain-of-function mutations of PKC isoforms have been identified in many human cancers (Antal et al., 2015, Cell, 160:489-502).
# Panc2.13 (Pancreatic) = assay: Proliferation of Panc2.13; format: cell-based
# Method: as §4
# (§5) The compounds in this disclosure were tested for their potency in blocking proliferation of a few other cancer cells lines, including K-Ras mutant pancreatic cell lines Panc2.13 and KP-4, leukemia cell line HL-60, and lymphoma cell lines Namalwa and Mino. Similar procedures as in Example 67 were followed. Initial cell numbers seeded in 96-well plates were different for different cell lines: 3000 cells/well for Panc2.13; 800-1000 cells/well for KP-4; 5000 cells/well for HL-60; 5000-10000 cells/well for Namalwa and Mino. A ratio of (IC50 of K101)/(IC50 of compound) (data in parenthesis in Table 5) was used to normalize the compound potency from different assay batches to a common comparator K101.
# KP-4 (Pancreatic) = assay: Proliferation of KP-4; format: cell-based; settings: read-out: IC50 KP-4 (Pancreatic)
# Method: as §4, §5
# HL-60 (Leukemia) = assay: Proliferation of HL-60; format: cell-based
# Method: as §4, §5
# Namalwa (Lymphoma) = assay: Proliferation of Namalwa; format: cell-based
# Method: as §4, §5
# Mino (Lymphoma) = assay: Proliferation of Mino; format: cell-based
# Method: as §4, §5
# [1] = test system: NFκB-driven transcription in HeLa-NFκB luciferase reporter cell line; assay: NFκB luciferase reporter assay; settings: Homo sapiens, HeLa, 16 h, read-out: NFκB-luc HeLa cells EC50 (μM)
# C1b domain of human PKCε = target: T3, C1b domain of human PKCε (Homo sapiens, UniProt Q02156); assay: biochemical; format: binding; settings: 3H-PDBu competition
# T3 construct: Genes encoding C1b domains of human PKCα, δ, ε, θ, and PKD1 (PKCμ) were synthesized; made in house; host or cells: E. coli BL21(DE3)
# Method: as §1, §2, §3
# [2] = target: T4, C1b domain of human PKD1 (PKCμ) (Homo sapiens, UniProt Q15139); assay: Competitive 3H-PDBu binding assay, C1b domain of PKD1 (PKCμ); settings: 3H-PDBu competition
# T4 construct: Genes encoding C1b domains of human PKCα, δ, ε, θ, and PKD1 (PKCμ) were synthesized; made in house; host or cells: E. coli BL21(DE3)
# T4 sequence (Q15139 270-320 limits assumed): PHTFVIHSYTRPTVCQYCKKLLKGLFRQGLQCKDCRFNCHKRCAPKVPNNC
# Method: as §1, §2, §3
# T3 sequence (Q02156 242-292 limits assumed): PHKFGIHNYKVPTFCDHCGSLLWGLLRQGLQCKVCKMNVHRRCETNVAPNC
# T1 sequence (Q05655 230-280 limits assumed): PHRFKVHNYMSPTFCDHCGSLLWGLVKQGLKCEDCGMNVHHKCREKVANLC
SMILES,Ki (C1b domain of human PKCδ),Ki (C1b domain of human PKCθ),"IC50 (A549 cell line; Homo sapiens, A549, 96 h)",Ki (C1b domain of human PKCε),further results
CC1=C[C@H]2[C@@]3(O)[C@H](C)C[C@]4(OC(=O)[C@@H](N)CCCCCCc5ccc(C(F)F)cc5)[C@H]([C@@H]3C=C(CO)C[C@]2(O)C1=O)C4(C)C,10 to 30 nM,10 to 30 nM,0.1 to 0.2 µM,,
CC1=C[C@H]2[C@@]3(O)[C@H](C)C[C@]4(OC(=O)C5CC6(C5)CN(C(=O)OC(C)(C)C)C6)[C@H]([C@@H]3C=C(CO)C[C@]2(O)C1=O)C4(C)C,10 to 30 nM,10 to 30 nM,0.1 to 0.2 µM,,
CC1=C[C@H]2[C@@]3(O)[C@H](C)C[C@]4(OC(=O)[C@@H](N)CCc5ccccc5)[C@H]([C@@H]3C=C(CO)C[C@]2(O)C1=O)C4(C)C,,10 to 30 nM,0.1 to 0.2 µM,,"ratio (IC50 of K101)/(IC50 of compound) Panc2.13 (Panc2.13 (Pancreatic)): 4.28; IC50 (Panc2.13 (Pancreatic); read-out: IC50 Panc2.13 (Pancreatic)): 200 to 600 nM; IC50 (KP-4 (Pancreatic)): 100 to 200 nM; ratio (IC50 of K101)/(IC50 of compound) HL-60 (HL-60 (Leukemia)): 3.21; IC50 (HL-60 (Leukemia); Homo sapiens, HL-60, read-out: IC50 HL-60 (Leukemia)): 100 to 200 nM; ratio (IC50 of K101)/(IC50 of compound) Namalwa (Namalwa (Lymphoma)): 0.93; IC50 (Namalwa (Lymphoma); 96 h, read-out: IC50 Namalwa (Lymphoma)): 100 to 600 nM; ratio (IC50 of K101)/(IC50 of compound) Mino (Mino (Lymphoma)): 3.18; IC50 (Mino (Lymphoma); Homo sapiens, MINO, read-out: IC50 Mino (Lymphoma)): 10 to 30 nM; EC50 [1]: 0.1 to 0.2 µM"
CC1=C[C@H]2[C@@]3(O)[C@H](C)C[C@]4(OC(=O)/C=C/c5ccc(C(F)(F)F)cc5)[C@H]([C@@H]3C=C(CO)C[C@]2(O)C1=O)C4(C)C,10 to 30 nM,10 to 30 nM,0.06 to 0.1 µM,10 to 30 nM,
CC1=C[C@H]2[C@@]3(O)[C@H](C)C[C@]4(OC(=O)CC5CC6(C5)CN(C(=O)OC(C)(C)C)C6)[C@H]([C@@H]3C=C(CO)C[C@]2(O)C1=O)C4(C)C,,10 to 30 nM,0.03 to 0.06 µM,10 to 30 nM,
"CCCCCCCCCCCCCC(=O)O[C@@H]1[C@@H](C)[C@@]2(O)[C@@H](C=C(CO)C[C@]3(O)C(=O)C(C)=C[C@@H]23)[C@@H]2C(C)(C)[C@]12OC(C)=O [Compound K103, 12-O-Tetradecanoylphorbol-13-acetate, reference compound]",< 5 nM,< 5 nM,,< 5 nM,"Ki [2]: < 5 nM; IC50 (A549 cell line; 96 hours, CellTiter Glo): < 0.01 µM"
